Measurements from the supplement of paper PMC10307832.

What was measured:
Assay in all cases: relative viability (nuclei count vs DMSO), 5 days (fraction); higher = more cells survive
[1] = compound: CC1=NC=CC(=C1)C2=CC=C(C=C2)CC(=O)NC3=CC=C(C=C3)C4=CN=CC=C4 [Wnt-C59] + N=C(N)NC(=N)NCCc1ccccc1 [Phenformin] (partner 250 µM)
Summary of the method: (§1)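 Values are medians from duplicate plates. Each reflects relative viability, defined as the nuclei count of treated wells over that of vehicle wells. Lung cancer cell lines in 1536-well plates were pin-tool dosed one day after seeding with one drug alone or with a fixed anchor-drug dose plus five library-drug doses (not always all listed) in √10 steps, then fixed, stained and imaged at 4× after 5 days.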

[2] = compound: CC1=NC=CC(=C1)C2=CC=C(C=C2)CC(=O)NC3=CC=C(C=C3)C4=CN=CC=C4 [Wnt-C59] + COc1cc2c(Oc3ccc(NC(=O)C4(C(=O)Nc5ccc(F)cc5)CC4)cc3F)ccnc2cc1OCCCN1CCOCC1 [Foretinib] (partner 0.25 µM)
Summary of the method: as §1

[3] = compound: CS(=O)(=O)CCNCc1ccc(-c2ccc3ncnc(Nc4ccc(OCc5cccc(F)c5)c(Cl)c4)c3c2)o1 [Lapatinib] + N=C(N)NC(=N)NCCc1ccccc1 [Phenformin] (partner 250 µM)
Summary of the method: as §1

[4] = compound: CC1=NC=CC(=C1)C2=CC=C(C=C2)CC(=O)NC3=CC=C(C=C3)C4=CN=CC=C4 [Wnt-C59]
Summary of the method: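 Vehicle-anchored 1536-well plates of lung cancer cell lines, held overnight at 37 °C, were pinned with five library-drug doses (not always all listed) spaced by √10. No medium change followed over the next 5 days, after which the cells were fixed, permeabilised and Hoechst-stained together and imaged at 4×. Nuclei were counted with MetaXpress, and viability is treated-well nuclei over vehicle-well nuclei, taken as a median across plates. Plates passed with control CV below 25% and at least one doubling.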

| Cell Line | relative viability ([1]; first compound 0.001 µM) | relative viability ([1]; first compound 0.01 µM) | relative viability ([1]; first compound 0.03162 µM) | relative viability ([1]; first compound 0.1 µM) | relative viability ([2]; first compound 0.001 µM) | relative viability ([2]; first compound 0.01 µM) | relative viability ([2]; first compound 0.03162 µM) | relative viability ([2]; first compound 0.1 µM) | relative viability ([3]; first compound 0.02 µM) | relative viability ([3]; first compound 0.06325 µM) | relative viability ([3]; first compound 0.2 µM) | relative viability ([3]; first compound 0.6325 µM) | relative viability ([3]; first compound 2 µM) | relative viability ([4]; 0.001 µM) | relative viability ([4]; 0.01 µM) | relative viability ([4]; 0.03162 µM) | relative viability ([4]; 0.1 µM) |
| --- | --- | --- | --- | --- | --- | --- | --- | --- | --- | --- | --- | --- | --- | --- | --- | --- | --- |
| NCI-H1944 | 0.197 | 0.188 | 0.19 | 0.197 | 1.02 | 0.701 | 0.841 | 0.867 | 0.178 | 0.14 | 0.188 | 0.193 | 0.186 | 0.956 | 0.945 | 1.07 | 1.01 |
| NCI-H1975 | 0.396 | 0.393 | 0.395 | 0.406 | 0.819 | 0.891 | 0.942 | 0.906 | 0.413 | 0.362 | 0.385 | 0.399 | 0.385 | 0.901 | 0.896 | 0.968 | 0.988 |
| NCI-H1993 | 0.49 | – | 0.472 | 0.514 | 0.81 | – | 0.987 | 0.706 | 0.597 | – | 0.509 | 0.583 | 0.556 | 0.86 | 0.751 | 1.04 | 0.909 |
| NCI-H2009 | 0.535 | 0.514 | 0.495 | 0.469 | 1.26 | 1.21 | 1.22 | 0.819 | 0.528 | 0.484 | 0.507 | 0.513 | 0.457 | 0.997 | 0.999 | 1 | 0.992 |
| NCI-H2023 | 0.406 | 0.415 | 0.419 | 0.35 | 1.1 | 0.788 | 1.01 | 0.667 | 0.395 | – | 0.417 | 0.429 | 0.307 | 0.948 | 1.03 | 1.15 | 0.801 |
| NCI-H2085 | 0.757 | 0.649 | 0.691 | 0.673 | 0.987 | 0.958 | 0.88 | 0.918 | – | 0.64 | 0.735 | 0.61 | 0.458 | 1.02 | 0.98 | 1 | 0.953 |
| NCI-H2087 | 0.504 | 0.416 | 0.547 | 0.465 | 1.1 | 0.979 | 0.947 | 1.01 | – | 0.354 | 0.485 | 0.552 | 0.406 | 1.07 | 0.922 | 0.971 | 1.01 |
| NCI-H2126 | 0.542 | 0.507 | 0.53 | 0.541 | 1.2 | 1.11 | 1.05 | 1.25 | – | 0.393 | 0.529 | 0.536 | 0.406 | 1.02 | 0.976 | 1.03 | 1.04 |
| NCI-H2170 | 0.436 | 0.395 | 0.405 | 0.443 | 0.942 | 0.991 | 1.06 | 1.01 | 0.351 | 0.408 | 0.455 | 0.359 | 0.198 | 0.997 | 0.879 | 0.939 | 0.975 |
| NCI-H2228 | 0.325 | 0.385 | 0.294 | 0.415 | 0.758 | 0.778 | 0.751 | 0.594 | 0.33 | 0.25 | 0.245 | 0.292 | 0.325 | 1.01 | 0.819 | 0.891 | 0.868 |
| NCI-H2342 | 0.616 | 0.63 | 0.756 | 0.746 | 1.06 | 1.16 | 1.18 | 1.07 | 0.511 | 0.557 | 0.574 | 0.51 | 0.489 | 1.01 | 1 | 0.989 | 1.03 |
| NCI-H2347 | 0.446 | 0.369 | 0.249 | 0.388 | 0.625 | 1.13 | 0.985 | 1.08 | – | 0.376 | 0.498 | 0.641 | 0.337 | 1.05 | 1.01 | 1.03 | 0.997 |
| NCI-H2405 | 0.413 | 0.336 | 0.366 | 0.384 | 1.04 | 0.94 | 0.938 | 0.941 | 0.321 | 0.278 | 0.405 | 0.372 | 0.357 | 1.01 | 0.932 | 0.945 | 0.977 |
| NCI-H3122 | 0.369 | 0.366 | 0.36 | 0.362 | 0.933 | 0.978 | 0.989 | 0.946 | – | 0.379 | 0.392 | 0.385 | 0.33 | 0.989 | 0.991 | 1.02 | 0.962 |
| PC-3 [JPC-3] | 0.486 | 0.467 | 0.52 | 0.502 | 1.05 | 1.12 | 1.14 | 1.05 | 0.452 | 0.468 | 0.457 | 0.521 | 0.431 | 1.04 | 1.06 | 1.05 | 1.14 |
| PC-14 | 0.583 | 0.713 | 0.478 | 0.748 | 1.03 | 0.982 | 0.897 | 0.973 | – | 0.642 | 0.523 | 0.461 | 0.337 | 1.09 | 1.1 | 1 | 1 |
| RERF-LC-KJ | 0.441 | 0.478 | 0.433 | 0.419 | 0.889 | 0.832 | 0.915 | 0.926 | 0.406 | 0.39 | 0.469 | 0.35 | 0.369 | 1 | 0.978 | 1.09 | 0.987 |
| SK-LU-1 | 0.476 | 0.49 | 0.506 | 0.503 | 0.791 | 0.796 | 0.87 | 0.792 | 0.464 | 0.484 | 0.547 | 0.674 | 0.512 | 1 | 0.987 | 1.01 | 1.01 |
| SK-MES-1 | 0.673 | 0.69 | 0.694 | 0.695 | 0.974 | 0.81 | 0.905 | 0.918 | 0.62 | 0.684 | 0.684 | 0.563 | 0.306 | 1.01 | 1.05 | 1.06 | 0.993 |
| SW 900 | 0.633 | 0.607 | 0.555 | 0.574 | 1.14 | 0.667 | 1.18 | 1.01 | – | 0.484 | 0.554 | 0.554 | 0.531 | 0.681 | 0.755 | 0.793 | 0.823 |
| SW 1573 | 0.343 | 0.41 | 0.431 | 0.365 | 1.13 | 1.03 | 0.879 | 0.784 | 0.398 | 0.338 | 0.346 | 0.347 | 0.354 | 1.02 | 0.967 | 1.1 | 0.91 |
